# From patent publication US20260355182A1, “ISOQUINOLINE DERIVATIVE, SYNTHESIS METHOD THEREFOR, AND USE THEREOF” (Harbin Gloria Pharmaceuticals Co., Ltd., priority 2023, published 2026)
# Legend:
# [1] = system: SK-N-SH cells (Pgk1 knockdown); test: Seahorse mitochondrial respiration in Pgk1-knockdown and normal SK-N-SH cells; type: cell-based, human; conditions: 10 μM
# Protocol: Cellular mitochondrial stress was detected using a Seahorse XFe analyzer (XFe-24, Seahorse Bioscience, Billerica, MA, UAS) to measure the oxygen consumption rate (OCR). SH-SKN cell lines were seeded in a 24-well plate compatible with the Seahorse XFe analyzer. After 24 hours, cells were treated with DMSO (0.01%) or various drugs (10 μM). Cellular mitochondrial stress was detected 12 hours after drug treatment. For the mitochondrial stress test, 97.2 mL of Seahorse basal medium (Seahorse Bioscience, Billerica, MA, UAS) was taken and heated in a water bath to 37 °C, and 1 mL of a stock solution was added. The stock solution was prepared by mixing the following solutions: 1 mL of 200 mM L-glutamine solution (Sigma), 1 mL of 100 mM pyruvate solution (Sigma), and 800 μL of 2.5 M glucose solution, and the pH of the stock solution was adjusted to 7.4 with 1 M NaOH solution. Before detection, the probe plate was taken out, and 1 mL of XF Carlibrant solution (Seahorse Bioscience) was added to the probe plate. The plate was then incubated overnight in a CO2-free constant temperature incubator at 37 °C. After drug treatment, the cells were removed and washed twice with preheated Seahorse basal medium at 37 °C, ensuring that 500 μL of Seahorse basal medium remained in each well. The cells were incubated in a CO2-free constant temperature incubator at 37 °C for 1 hour. […]
# [2] = system: SK-N-SH cells; test: Dose-effect relationship on cellular ATP levels in cultured SK-N-SH cells; type: cell-based, human
# Protocol: SK-N-SH cells were seeded in a 6-well plate at a density of 6×10^4 per well. Cells were cultured for 12 hours under 5% O2, and the drug was added. Cells were harvested after 48 hours. Cellular ATP levels were measured using a Promega ATP assay kit. The experiment was repeated 5 times to 7 times.
# [3] = system: db/db mice; test: Chronic treatment assay, HbA1c in db/db mice (ELISA); type: in vivo; conditions: drinking water 2 weeks, particularly T6 1.5 mg/kg, vs untreated control
# Protocol: (§1) The db/db mice were used to evaluate the glucose-lowering activity of compound T6 in comparison with reference metabolic agents (TZ 0.5 mg/Kg, liraglutide 0.6 mg/Kg, T6 0.5 mg/Kg). In FIG. 15, A) for the acute glucose-response assay, drugs were administered to non-fasted db/db mice. Immediately after drug administration (s. c.), mice were deprived of food and water, and blood glucose levels were measured from tail blood samples 2 h later. The relative percentage change in blood glucose was calculated by comparing glucose levels before and after treatment in the same animal. […] HbA1c levels were then measured using a glycated hemoglobin A1c enzyme-linked immunosorbent assay, also referred to as a mouse HbA1c ELISA assay. […] Data are presented as mean±error bars, with individual circles representing individual animals. Statistical significance is indicated as P<0.001 (**) and P<0.0001 (***).
# [4] = system: FUS-525-GFP; test: Level of ALS-associated mutant FUS-GFP protein in primary mouse neurons (Western blot); type: cell-based; conditions: 5, 10 or 20 μM
# Protocol: Primary mouse neurons were engineered to express GFP-tagged mutant FUS-525, an ALS-associated pathogenic FUS variant, and were treated with vehicle control or compound T6 at 5, 10, or 20 μM. Cell lysates were analyzed by Western blotting using antibodies detecting FUS-GFP, with GAPDH serving as a loading control. In FIG. 11, the FUS-GFP fusion protein was detected at approximately 96 kDa, whereas GAPDH was detected at approximately 38 kDa.
# [5] = system: SKN cells (Pgk1 shRNA); test: Mitochondrial respiration in SKN cells with Pgk1 shRNA (Seahorse); type: cell-based
# Protocol: SKN cells were transduced with Pgk1 shRNA to reduce endogenous Pgk1 expression and were subsequently treated with vehicle control or compound T6. […] GAPDH was used as a loading control; B) mitochondrial respiration was assessed by Seahorse extracellular flux analysis and is expressed as oxygen consumption rate (OCR; pmol/min/10^4 cells). Oligomycin, FCCP, and rotenone plus antimycin were sequentially added to evaluate basal respiration, ATP-linked respiration, maximal respiratory capacity, and non-mitochondrial respiration. […] In contrast, Pgk1 knockdown reduced mitochondrial respiratory activity and diminished the respiration-enhancing effect of T6. […] Data are presented as mean±SD, with individual points representing replicate measurements. Statistical significance is indicated as **P<0.001; ns, not significant. […] The data support Pgk1 as a functional cellular target mediating the metabolic activity of T6.
# [6] = system: db/db mice; test: Acute glucose-response assay in non-fasted db/db mice; type: in vivo; conditions: s.c., 2 h; TZ 0.5, liraglutide 0.6, T6 0.5 mg/Kg
# Protocol: as §1
# [7] = system: primary mouse neurons; test: Cellular status and glucose metabolism-related gene expression in primary mouse neurons; type: cell-based; conditions: normoxic, 72 h, T6 10 PM (so in the source)
# From the text: In FIG. 10, A) representative bright-field images show the cellular status of primary neurons after treatment. […] The analyzed genes included G6PD, HK2, LDHA, PDK1, PGK1, and SLC2A1/GLUT1. […] TZ treatment produced a similar but generally more moderate metabolic gene-response profile, including increased LDHA, PDK1, and SLC2A1/GLUT1 expression. […] Error bars indicate variation among measurements. […] The results support the use of T6 or related compounds as agents capable of regulating neuronal metabolic status and glucose metabolism-associated pathways.
# [8] = system: SOD1G93A transgenic mice; test: High-copy-number SOD1G93A ALS model mice, body weight and survival; type: in vivo; conditions: 0.2 mg/kg i.p. once daily from 80 days of age
# Protocol: High-copy-number SOD1G93A transgenic mice, a genetic model of amyotrophic lateral sclerosis (ALS), were treated with compound T6 or vehicle control beginning at 80 days of age. T6 was administered once daily by intraperitoneal injection at 0.2 mg/kg, and control animals received PBS. Disease-associated slowing of movement was observed beginning at approximately 90 days of age. […] The control group included 7 mice, and the T6-treated group included 5 mice. T6 treatment shifted the survival curve to the right, indicating an extension of survival after initiation of treatment (survival analysis, p=0.072).
# [9] = target: T1, Pgk1 (Homo sapiens, UniProt P00558); test: Affinity for Pgk1 protein (Biacore T200); type: binding
# T1 sequence (P00558 1-417): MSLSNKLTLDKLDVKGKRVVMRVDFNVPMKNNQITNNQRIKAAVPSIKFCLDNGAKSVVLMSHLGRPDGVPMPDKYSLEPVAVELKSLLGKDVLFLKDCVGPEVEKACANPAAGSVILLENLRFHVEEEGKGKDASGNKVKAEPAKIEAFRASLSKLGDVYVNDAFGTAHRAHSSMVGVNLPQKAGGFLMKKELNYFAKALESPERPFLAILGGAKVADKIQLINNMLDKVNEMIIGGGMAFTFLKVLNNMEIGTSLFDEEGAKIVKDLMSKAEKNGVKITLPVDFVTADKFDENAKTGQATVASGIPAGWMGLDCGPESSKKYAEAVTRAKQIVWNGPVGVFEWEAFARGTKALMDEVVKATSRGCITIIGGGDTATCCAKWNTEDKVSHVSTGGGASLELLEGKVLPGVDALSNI
# Protocol: Example 30: Determination of Affinities of Compounds for Pgk1 Protein
# Purified Pgk1 protein (with a concentration of 1 mg/mL) was immobilized on a Biacore T200 chip. […] The obtained curves can calculate parameters such as affinity and Rmax.
smiles,measurement,setting,value
Nc1nc(N2CCN(C(=O)[C@H]3CCCO3)CC2)cc2cc3c(cc12)OCC3 [Compound T6],"Basal and maximum respiratory rate, normal cells",[1]; normal (control) cells,activated both the basal respiratory rate and maximum respiratory rate
same,"Basal and maximum respiratory rate, shPgk1 knockdown cells",[1]; shPgk1 knockdown cells,this activity was absent in shPgk1 knockdown cells
same,Inhibition of cell growth,"[2]; 50 μM, SK-N-SH cells",a tendency to inhibit cell growth
same,minimal effective concentration,"[2]; Homo sapiens, 48 h, SK-N-SH cells, read-out: Biologically effective concentration",~10 µM
same,Optimal dose for cellular ATP levels,"[2]; doses 5, 10 and 50 μM, 48 hours, 5% O2",50 µM
same,HbA1c level,[3],reduced HbA1c levels
same,Abundance of mutant FUS-GFP protein,[4],reduced the abundance of mutant FUS-GFP protein
same,GAPDH level,[4]; loading control,remained largely unchanged
same,"Basal respiration and maximal respiration (OCR), Pgk1 shRNA cells",[5]; Pgk1 shRNA-expressing SKN cells,no significant increase
same,"Basal respiration and maximal respiration (OCR), control cells",[5]; control SKN cells,significantly increased both basal respiration and maximal respiration
same,Acute change in blood glucose,[6],marked reduction in blood glucose
same,Relative mRNA expression of G6PD,[7]; control = 1.0,increased
same,Neuronal cellular morphology/status,[7]; TZ 10 μM,detectable changes in neuronal cellular morphology/status
same,Relative mRNA expression of HK2,"[7]; TZ 10 μM, control = 1.0",not increased
same,Relative mRNA expression of LDHA,"[7]; TZ 10 μM, control = 1.0",increased
same,Relative mRNA expression of PDK1,"[7]; TZ 10 μM, control = 1.0",increased
same,Relative mRNA expression of PGK1,"[7]; TZ 10 μM, control = 1.0",only modestly changed
same,Relative mRNA expression of SLC2A1/GLUT1,"[7]; TZ 10 μM, control = 1.0",increased
same,Survival,[8]; vs PBS,delayed mortality
same,Body weight,[8]; 81 to 123 days of age,maintained body weight more effectively
same,Kd,"[9]; + saturated ADP, read-out: Affinity (KD) in the presence of ADP",> 1 mM
same,Rmax,"[9]; drug alone, amount of small-molecule drug bound",106 RU
